{"source": "patent US20040132731A1", "about": "“Novel combination” (priority 2002, published 2004)", "test_system": "spontaneously hypertensive rat (SHR)", "test": "Animal study: change in mean arterial pressure in anaesthetised spontaneously hypertensive rats", "assay_type": "in vivo", "details": "anaesthetised male SHR; for Change in mean arterial pressure from vehicle: n=6/group, infusion at 0.5 mL/h, candesartan 0.02 μg/kg/min, PDE5 inhibitor 15.61 μg/kg/min, combination 15.61 μg/kg/min+0.02 μg/kg/min; for fall in MAP: text restatement of the table, combination vs sum of the two individual effects p=0.058", "procedure": "The spontaneously hypertensive rat (SHR) is a widely used model of human hypertension. Anaesthetised male SHRs (250-450 g) were surgically prepared for the measurement of systolic, diastolic and mean arterial pressure. Cannulae were inserted into the jugular veins and carotid artery. The trachea was also cannulated to facilitate respiration. Following a 60 min post-surgical stabilisation period, arterial blood pressure and heart rate were recorded via a pressure transducer and PoNeMah data acquisition system.\nSolutions of candesartan (0.02, μg/kg/min), PDE5 inhibitor (15.61 μg/kg/min) and a combination of PDE5 inhibitor and candesartan (15.61 μg/kg/min+0.02, μg/kg/min) were infused as appropriate at a rate of 0.5 mL/h. Control animals received compound vehicle (5% DMSO, 10% PEG200, 85% water for injection (v/v)).\nBaseline haemodynamic parameters were recorded. Animals (n=6/group) were randomised to receive a primed infusion of either vehicle or PDE5 Inhibitor for a period of 60 min. At this point, these groups were further randomised to receive either (i) vehicle or PDE5 inhibitor alone, (ii) candesartan alone or (iii) a combination of candesartan and PDE5 inhibitor. Changes in mean arterial pressure were monitored during the study period.", "data": [{"molecule": "CCc1c2nc(-c3cc(S(=O)(=O)N4CCN(CC)CC4)cnc3OCCOC)[nH]c(=O)c2nn1Cc1ccccn1", "note": "[PDE5 inhibitor, 3-ethyl-5-[5-(4-ethylpiperazin-1-ylsulphonyl)-2-(2-methoxyethoxy)pyridin-3-yl]-2 (pyridin-2-yl)methyl-2,6-dihydro-7H-pyrazolo[4,3-d]pyrimidin-7-one]", "values": [{"measurement": "Change in mean arterial pressure from vehicle", "result": "−7.4", "unit": "mmHg"}, {"measurement": "fall in MAP", "result": 7.4, "unit": "mmHg"}]}, {"molecule": "CCOc1nc2cccc(C(=O)O)c2n1Cc1ccc(-c2ccccc2-c2nnn[nH]2)cc1", "note": "[candesartan]", "values": [{"measurement": "Change in mean arterial pressure from vehicle", "result": "−3.2", "unit": "mmHg"}, {"measurement": "fall in MAP", "result": 3.2, "unit": "mmHg"}]}]}
